Experimental data from patent publication US20260306500A1, “METHOD OF INHIBITING ADENOSINE TRIPHOSPHATE SECRETION, METHOD OF INHIBITING HEPATIC STELLATE CELL ACTIVATION, METHOD OF DEACTIVATING HEPATIC STELLATE CELL, METHOD OF TREATING HEPATIC FIBROSIS, METHOD OF TREATING NON-ALCOHOLIC STEATOHEPATITIS, AND METHOD OF TREATING PSORIASIS” (Kurume University, priority 2023, published 2026).
Counter-ions that a name gives are not always drawn.

Legend:
[1] = biological target: T1, V-ATPase (Bos taurus, UniProt P31404+P31408); assay: ATP-dependent proton transport by V-ATPase (acridine orange fluorescence quenching); type: biochemical, cattle
T1 construct: Chromaffin granule membranes were prepared from adrenal glands collected from slaughtered cattle; from tissue; host or cells: cattle adrenal glands, chromaffin granule membranes (sucrose density gradient)
T1 sequence (P31404 whole entry, looked up): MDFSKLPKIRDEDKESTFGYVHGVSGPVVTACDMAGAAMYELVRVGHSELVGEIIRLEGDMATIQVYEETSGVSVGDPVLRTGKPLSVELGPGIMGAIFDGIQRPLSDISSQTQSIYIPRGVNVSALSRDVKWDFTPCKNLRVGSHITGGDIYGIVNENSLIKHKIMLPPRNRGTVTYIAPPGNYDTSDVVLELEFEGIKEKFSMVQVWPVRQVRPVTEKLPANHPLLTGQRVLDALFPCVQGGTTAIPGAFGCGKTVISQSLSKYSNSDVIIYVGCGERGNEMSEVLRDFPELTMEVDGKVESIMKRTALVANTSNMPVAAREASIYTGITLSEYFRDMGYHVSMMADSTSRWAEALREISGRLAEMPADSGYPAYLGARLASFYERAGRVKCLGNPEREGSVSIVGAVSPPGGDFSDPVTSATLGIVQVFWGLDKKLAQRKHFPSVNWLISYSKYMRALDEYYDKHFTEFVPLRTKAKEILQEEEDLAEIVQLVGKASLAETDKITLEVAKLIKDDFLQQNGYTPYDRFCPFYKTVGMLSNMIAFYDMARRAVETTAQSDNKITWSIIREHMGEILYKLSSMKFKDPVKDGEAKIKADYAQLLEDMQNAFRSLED
T1 sequence (P31408 whole entry, looked up): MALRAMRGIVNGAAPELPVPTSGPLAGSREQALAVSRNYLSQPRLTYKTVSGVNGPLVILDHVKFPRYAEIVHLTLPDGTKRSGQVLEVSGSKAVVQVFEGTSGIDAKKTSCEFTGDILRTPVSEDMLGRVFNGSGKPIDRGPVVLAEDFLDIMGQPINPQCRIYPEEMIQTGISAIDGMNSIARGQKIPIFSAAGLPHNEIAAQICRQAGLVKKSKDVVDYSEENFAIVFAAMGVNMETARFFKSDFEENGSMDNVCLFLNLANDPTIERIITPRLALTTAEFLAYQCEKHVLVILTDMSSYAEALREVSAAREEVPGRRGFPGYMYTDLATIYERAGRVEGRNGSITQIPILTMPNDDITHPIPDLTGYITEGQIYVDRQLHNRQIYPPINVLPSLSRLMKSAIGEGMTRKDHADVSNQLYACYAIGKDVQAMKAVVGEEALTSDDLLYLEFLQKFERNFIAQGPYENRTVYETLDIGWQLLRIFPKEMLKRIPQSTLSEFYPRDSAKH
Procedure: (§1) Chromaffin granule membranes were prepared from adrenal glands collected from slaughtered cattle according to Reference A (Nathan Nelson et al., 1988, Chromaffin Granule Proton Pump, Methods in Enzymology, 157, 619-633). Chromaffin granule membranes prepared by sucrose density gradient centrifugation were suspended in 2 ml of SME buffer (20 mM MOPS-tris (pH 7.0), 0.3 M sucrose, 5 mM EDTA, 10 μg/ml leupeptin, and 10 μg/ml pepstatin)+25% glycerol, and the resulting suspension was aliquoted and stored at −80° C. Under these conditions, the ATP transport activity, the V-ATPase activity, and the catecholamine transport activity remain fully active for at least one year.
ATP-dependent proton transport by V-ATPase was measured according to Reference B. Proton transport activity was measured using a spectrofluorometer at excitation wavelength of 492 nm and a fluorescence wavelength 540 nm, wherein fluorescence quenching of acridine orange was used as an index (N=2). The transmembrane potential generated was measured using a spectrofluorometer at an excitation wavelength of 580 nm and a fluorescence wavelength of 630 nm, wherein fluorescence quenching of oxonol-V was used as an index (N=2). The acridine measurement liquid (2 ml) contained 20 mM MOPS-tris (pH 7.0), 0.2 M sucrose, 0.1 M potassium chloride, 5 mM magnesium acetate, 0.2 μg valinomycin, 2 μM acridine orange, and about 20 μg of chromaffin granules. The oxonol-V measurement liquid (2 ml) contained 20 mM MOPS-tris (pH 7.0), 0.3 M sucrose, 5 mM magnesium acetate, 5 μM oxonol-V, and about 20 μg of chromaffin granules.
(§2) Chromaffin granule membrane vesicles were prepared in the same manner as in Example 5, and uptake of radiolabeled ATP into the vesicles was measured. Transport activity of catecholamine (dopamine) and ATP-dependent proton transport by V-ATPase were also measured in the same manner as in Example 5.

[2] = tested on: chromaffin granule membrane; assay: ATP transport (uptake of radiolabeled ATP) in chromaffin granule membrane vesicles; type: biochemical, cattle; details: role: inhibitor, MANT-ATP
Procedure: as §1
An ATP transport inhibition experiment for the chromaffin granule membrane was carried out according to Reference B (Yoshinori Moriyama et al., 2022, Is the vesicular nucleotide transporter a molecular target of eicosapentaenoic acid?, Frontiers in Pharmacology, 103389). About 20 μg of chromaffin granule membranes were added to 0.5 ml of measurement buffer (20 mM MOPS-tris (pH 7.0), 0.3 M sucrose, 5 mM potassium chloride, 5 mM magnesium acetate, 5 mM creatine phosphate, 10 units of creatine kinase, and 1 mM 3[H]-ATP [15 KBq/assay]), followed by incubation at 30° C. for 1 hour. Through a Millipore MCE membrane filter with a pore size […], 0.2 ml of the reaction liquid was filtered by suction. Thereafter, the filter was washed with 10 ml of 20 mM MOPS-tris (pH 7.0), 0.3 M sucrose, 5 mM potassium chloride, and 5 mM magnesium acetate, and dissolved in 10 ml of Clear-sol II (manufactured by Nacalai Tesque, Inc.). The radioactivity was then measured using a liquid scintillation counter (N=3).
The reaction was initiated by adding 50 mM ^3[H]-ATP to a final concentration of 1 mM. The 50 mM ^3[H]-ATP was prepared by mixing an ATP-tris solution (manufactured by Sigma-Aldrich) with [2,8-^3H]adenosine triphosphate tetrasodium salt (26.0 Ci/mmol) (manufactured by New England Nuclear). PEP was used as a test reagent, and pyruvic acid was used as a negative control. Five minutes before the addition of ATP, PEP or pyruvic acid, as a solution in 20 mM MOPS-tris (pH 7.0), 0.3 M sucrose, 5 mM potassium chloride, and 5 mM magnesium acetate, was added to the measurement liquid to a final PEP concentration of 0.02, 0.05, 0.1, 0.2, 0.4, or 1 mM, or to a final pyruvic acid concentration of 0.5 or 1 mM.
as §2

[3] = tested on: ATP-loaded vesicles of keratinocytes; assay: Accumulation of MANT-ATP in granules of keratinocytes (confocal microscopy); type: cell-based, human; details: 0.3 mM MANT-ATP, control without imeglimin (FIG. 13)
Procedure: Keratinocytes were cultured in the same manner as in Example 8. Keratinocytes were cultured at 4×10^4 cells/ml in a glass-bottom dish (35 mm, manufactured by Matsunami Glass Ind., Ltd.) at 37° C. in 5% CO2 for 2 days. The culture medium was then replaced with a medium supplemented with MANT-ATP (manufactured by Invitrogen) at a final concentration of 0.3 mM, and further incubation was performed for 4.5 hours. Subsequently, imeglimin was added thereto to a final concentration of 10 μM, and further incubation was performed at 37° C. in 5% CO2 for 19 hours. Thereafter, the cells were washed twice with HBSS (manufactured by Gibco) and observed using an inverted confocal laser microscope (FV-1000 OSR, manufactured by Olympus Corporation).

[4] = tested on: catecholamine transport of chromaffin granule membranes; assay: Catecholamine (dopamine) transport in chromaffin granule membranes; type: biochemical, cattle; details: role: inhibitor; MANT-ATP, N=3 (FIG. 11)
Procedure: as §1
A catecholamine transport inhibition experiment was carried out in the same manner as the ATP transport experiment except that the experiment used a measurement liquid containing 20 mM MOPS-tris (pH 7.0), 0.1 M sucrose, 0.1 M potassium chloride, 5 mM magnesium acetate, and about 5 μg of chromaffin granule membranes. To 0.5 ml of the measurement liquid, 2 mM ATP was added, and the resulting mixture was incubated at 30° C. for about 5 minutes, followed by addition of 3[H]-dopamine thereto to a final concentration of 10 μM. After further incubation at 30° C. for 15 minutes, 0.2 ml of the reaction liquid was subjected to suction filtration through a Millipore MCE membrane filter with a pore size of 0.45 μm, and the radioactivity on the filter was measured (N=3). The substrate, 3[H]-dopamine, was prepared by mixing 3,4-[RING-2,5,6-^3H]dihydroxyphenylethylamine (dopamine) (30 Ci/mmol) (manufactured by New England Nuclear) with dopamine hydrochloride (manufactured by LKT Laboratories) such that a final concentration of […] was achieved during the use.
as §2

[5] = tested on: human epidermal keratinocytes; assay: ATP secretion from human epidermal keratinocytes promoted by ionomycin; type: cell-based
Procedure: Human epidermal keratinocytes (Cryopreserved HEK, Lot 1758, Cell Applications Inc.) were cultured using an Epivita Keratinocyte Growth Medium Kit according to the manufacturer's instructions. The procedure was as follows. A supplement medium was added to a hydrocortisone-containing basal medium included in the medium preparation kit to prepare a complete medium. The medium in the dish was removed by aspiration. The cells were washed with 5 ml of BSS (Gbco), and then the BSS was removed by aspiration. After addition of 5 to 6 ml of trypsin/EDTA solution (Gbco), the dish was incubated at 37° C. for 2 minutes. After addition of 5 ml of trypsin neutralization solution, the resulting cell suspension was transferred into two 15-ml Falcon tubes, and centrifuged at 200×g for 5 minutes. The supernatant was removed by aspiration, and the pelleted cell cluster was suspended in 2 ml of the medium at 4.5×10^5 cells/ml. An aliquot of the resulting cell suspension was cryopreserved, while another aliquot was cultured and subjected to measurement.
ATP secretion by human epidermal keratinocytes (hereinafter referred to as “keratinocytes”) was measured. Regarding control solutions, Krebs-Ringer HEPES supplemented with 0.2% BSA and 25 mM glucose (hereinafter also referred to as “Krebs/Iono(−)”) was used as a negative control, and a solution prepared by adding 5 μM ionomycin to this solution (hereinafter also referred to as “Krebs/Iono(+)”) was used as a positive control for ATP secretion. Ionomycin is a Ca^2+ ionophore. Addition of ionomycin to cells is known to promote influx of extracellular Ca^2+ into the cells to increase the intracellular Ca^2+ concentration, resulting in enhancement of ATP secretion. Test solutions were prepared by adding clodronate to Krebs/Iono(−) or Krebs/Iono(+) to a final concentration of 0.1 μM (hereinafter also referred to as “Clo/Iono(−)” or “Clo/Iono(+)”, respectively) (N=3).
Keratinocytes were cultured at 2.5×10^4 cells/well in a 24-well plate at 37° C. in 5% CO2 for 4 days. The medium was removed by aspiration, replaced with Krebs/Iono(−) or Clo/Iono(−), and incubated at 37° C. for 6 hours. These solutions were then removed by aspiration, and the content of each well incubated with Krebs/Iono(−) was replaced with 300 μl of a control solution (Krebs/Iono(−) or Krebs/Iono(+)), while the content of each well incubated with Clo/Iono(−) was replaced with 300 μl of a test solution (Clo/Iono(−) or Clo/Iono(+)). After further incubation at 37° C. for 20 minutes, 200 μl of the supernatant was collected. The collected supernatant was immediately treated on a heat block at 95° C. for 10 minutes, to inactivate ectonucleotidase. ATP in the supernatant was quantified using a Dojindo ATP assay kit−Luminescence (manufactured by Dojindo Laboratories).
Keratinocytes were cultured in the same manner as in Example 1, and ATP secretion from the keratinocytes was measured. Krebs/Iono(−), or a solution prepared by adding 10 μM imeglimin, 0.1 μM eicosapentaenoic acid (EPA), 1 μM EPA, or 10 μM clodronate to Krebs/Iono(−) was used (N=4).
After culturing keratinocytes, the medium was removed by aspiration, and replaced with Krebs/Iono(−), or Krebs/Iono(−) supplemented with 10 μM imeglimin, 0.1 μM EPA, 1 μM EPA, or 10 μM clodronate, followed by incubation for 6 hours. Subsequently, the solution was replaced with either a control solution (Krebs/Iono(−) or Krebs/Iono(+)) or a test solution (Krebs/Iono(+) supplemented with 10 μM imeglimin, 0.1 μM EPA, 1 μM EPA, or 10 μM clodronate), followed by incubation at 37° C. for 20 minutes and then collection of 200 μl of the supernatant. The collected supernatant was immediately treated on a heat block at 95° C. for 10 minutes to inactivate ectonucleotidase. ATP in the supernatant was quantified using a Dojindo ATP assay kit—Luminescence (manufactured by Dojindo Laboratories). […]

[6] = tested on: V-ATPase; assay: Inhibitory effect on V-ATPase (data not shown)
[7] = tested on: human epidermal keratinocytes; assay: ATP secretion from keratinocytes upon LPS stimulation; type: cell-based; details: 10 μM, 18 hours, 10 μg/ml LPS, N=8 (FIG. 8)
Procedure: Keratinocytes were cultured in the same manner as in Example 1. Keratinocytes were cultured at 2.5×10^4 cells/well in a 24-well plate at 37° C. in 5% CO2 for 4 days. The medium was replaced with a test solution (Hanks' balanced salt solution (HBSS) (manufactured by Gibco) supplemented with imeglimin, metformin, or clodronate), and then incubation was performed at 37° C. in 5% CO2 for 18 hours. Thereafter, LPS (10 μg/ml) was added thereto, and incubation was further carried out for 10 minutes, followed by collection of 200 μl of the supernatant. The supernatant was immediately treated on a heat block at 95° C. for 10 minutes, and ATP in the supernatant was quantified using an ATP Assay Kit−Luminescence (manufactured by Dojindo) (N=8).

[8] = tested on: VNUT; assay: Inhibitory effect on VNUT (data not shown)

Row | effect on ATP-dependent proton transport by V-ATPase ([1]; role: inhibitor, MANT-ATP up to 100 μM, N=1 (FIG. 12)) | quenching of acridine orange fluorescence ([1]; role: substrate, 0.1 mM MANT-ATP) | total acridine orange fluorescence quenching ([1]; role: substrate, 0.1 mM MANT-ATP followed by addition of ATP) | IC50 ([2]; radiolabeled ATP, N=3 (FIG. 10), read-out: ID50 of ATP transport) | Compound | mode of inhibition of ATP transport by VNUT [2] | ATP transport ([2]; radiolabeled ATP, N=3 (FIG. 10)) | accumulation in the granules in keratinocytes [3] | effect on catecholamine transport system [4] | ATP secretion inhibitory effect at low concentration ([5]; 0.1 μM, 6 h preincubation, ionomycin) | ATP secretion inhibitory effect at higher concentrations ([5]; up to 10 μM metformin) | inhibitory effect on V-ATPase [6] | LPS-stimulated ATP secretion [7] | inhibitory effect on VNUT [8]
1 | did not affect | 34% | 61.8% | ~30 mM | CNc1ccccc1C(=O)O[C@H]1[C@@H](O)[C@H](n2cnc3c(N)ncnc32)O[C@@H]1COP(=O)(O)OP(=O)(O)OP(=O)(O)O [MANT-ATP, 2′/3′-O—(N-methyl-anthraniloyl)-adenosine-5′-triphosphate triethylammonium salt] | competitively inhibits | strongly inhibited ATP transport | accumulation of MANT-ATP in the granules | hardly affected |  |  |  |  | 
2 |  |  |  |  | CN(C)C(=N)NC(=N)N [metformin] |  |  |  |  | exhibit an ATP secretion inhibitory effect | decreased inhibitory effect at higher concentrations | neither imeglimin nor metformin exhibited a strong inhibitory effect | almost completely inhibited | neither imeglimin nor metformin exhibited a strong inhibitory effect
